# Test results as given in patent US20210198647A1, “Enhancers of Neurolysin Activity” (Texas Tech University System, priority 2018, published 2021).
# pEC50: −log10 of the molar value. Values joined by “and” are separate entries in the source; they are usually repeats but may differ in a detail not shown here. Identical values can stand only once. Like-named read-outs stand apart in the source and are kept apart here. Square brackets hold non-standard residues; d marks the D form. Peptide text beside a SMILES is read from it. * marks the point of attachment. NHPhenethyl = c1ccc(CCN*)cc1; Boc = CC(C)(C)OC(=O)*
# Target: T1, Neurolysin (Nln) (Rattus norvegicus, UniProt P42676)
# T1 construct: polyhistidine (N); made in house; host or cells: Escherichia coli (pBAD/His vector), if the rat enzyme of b61 was used
# Experiment: Nln activation in isolated enzyme assay (A50, Amax)
# Type: biochemical
# Conditions: for pEC50: read-out: A50 (concentration required to activate Nln by 50%)
# [1] = 100% = normal enzyme turnover, 95% CI in parentheses
# T1 sequence (P42676 38-704): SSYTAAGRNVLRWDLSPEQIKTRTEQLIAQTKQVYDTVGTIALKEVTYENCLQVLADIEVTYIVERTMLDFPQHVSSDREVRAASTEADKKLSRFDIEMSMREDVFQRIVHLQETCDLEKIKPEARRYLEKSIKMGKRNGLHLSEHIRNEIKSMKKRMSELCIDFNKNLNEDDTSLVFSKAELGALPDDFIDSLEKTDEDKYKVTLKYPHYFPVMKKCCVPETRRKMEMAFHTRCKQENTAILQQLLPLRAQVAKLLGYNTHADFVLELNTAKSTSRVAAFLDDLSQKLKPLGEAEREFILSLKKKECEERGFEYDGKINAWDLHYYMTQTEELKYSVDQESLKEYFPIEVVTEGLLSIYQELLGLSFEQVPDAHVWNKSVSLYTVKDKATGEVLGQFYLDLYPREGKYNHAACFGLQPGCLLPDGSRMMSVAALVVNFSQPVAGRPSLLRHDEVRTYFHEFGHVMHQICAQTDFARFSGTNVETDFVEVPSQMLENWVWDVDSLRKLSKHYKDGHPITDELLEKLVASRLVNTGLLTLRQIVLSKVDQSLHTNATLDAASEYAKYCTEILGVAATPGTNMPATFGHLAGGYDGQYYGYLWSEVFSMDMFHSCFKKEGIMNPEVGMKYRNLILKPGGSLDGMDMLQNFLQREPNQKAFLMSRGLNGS
Amax (maximum % activation achieved),Structure (SMILES),Amax (maximum % activation achieved) [1],also measured
,CC(C)(C)OC(=O)N[C@@H](Cc1c[nH]cn1)C(=O)NCCc1ccccc1,Inactive,A50 (concentration required to activate Nln by 50%) (95% CI in parentheses): Inactive
,CC(C)(C)OC(=O)N[C@@H](Cc1c[nH]cn1)C(=O)NCCc1c[nH]c2ccccc12,Inactive,A50 (concentration required to activate Nln by 50%) (95% CI in parentheses): Inactive
311 (298.6 to 325.7) %,NC(Cc1c[nH]cn1)C(=O)NCCc1cc2ccccc2[nH]1 (racemic) [(±)PT-1-173 RACEMIC],,
598.8 (532.8 to 692.9) %,"N[C@H](Cc1c[nH]cn1)C(=O)NCc1ccc(C(F)(F)F)cc1 (single isomer, unassigned) [AB1-17-2]",,
643 (588.8 to 714) %,"N[C@H](Cc1c[nH]cn1)C(=O)NCCc1ccc(C(F)(F)F)cc1 (single isomer, unassigned) [AB-1-8-2]",,
,"N[C@@H](Cc1c[nH]cn1)C(=O)Nc1ccccc1 (single isomer, unassigned) [DF-5-2A]",139.8 (124.7 to 158.4) %,pEC50 (95% CI in parentheses): 5.11
,"N[C@@H](Cc1c[nH]cn1)C(=O)N[C@@H](Cc1ccccc1)C(=O)O (stereo in doubt) [Compound 3, His-Phe]",573 (547.9 to 602.7) %,"pEC50 (95% CI in parentheses): 3.89; Amax (maximum % activation achieved) (100% = normal enzyme turnover, 95% CI in parentheses, listed as His-Phe): 573 (547.9 to 602.7) %"
438.4 (379.4 to 520.4) %,N[C@@H](Cc1c[nH]cn1)C(=O)NCCc1ccc(C(F)(F)F)cc1 [AB 3-2-2],,
,N[C@@H](Cc1ccccn1)C(=O)NCCc1ccccc1 [AB-1-3-2],Inactive,A50 (concentration required to activate Nln by 50%) (95% CI in parentheses): Inactive
,COc1ccc(CCNC(=O)[C@@H](N)Cc2c[nH]cn2)cc1 [AB-1-4-2],544 (492.2 to 609.4) %,
494.4 (476.7 to 512.9) %,N[C@@H](Cc1c[nH]cn1)C(=O)NCc1cccc(C(F)(F)F)c1 [AB-1-6-2],,
184.4 (169.4 to 201.5) %,N[C@H](Cc1cnc[nH]1)C(=O)NCc1cccc(C(F)(F)F)c1 [AB-1-9-2],,
477.1 (444 to 516) %,COc1cccc(CNC(=O)[C@H](N)Cc2cnc[nH]2)c1 [AB-1-14-2],,
703.5 (588.9 to 915.6) %,COc1ccc(CNC(=O)[C@H](N)Cc2cnc[nH]2)cc1 [AB-1-16-2],,
,N[C@@H](Cc1c[nH]cn1)C(=O)N[C@@H](Cc1ccccc1)C(=O)NCCc1ccccc1 [AB-2-5-4] (H-His-Phe-NHPhenethyl),177.6 (158.7 to 198.1) %,pEC50 (95% CI in parentheses): 5.27
,N[C@H](Cc1c[nH]cn1)C(=O)NCCc1ccccc1 [AB-2-7-2],407 (382.7 to 434.9) %,
,"N[C@@H](Cc1c[nH]cn1)C(=O)N[C@@H](Cc1ccc(O)cc1)C(=O)O [Compound 1, Histidine-tyrosine] (H-His-Tyr-OH)",467 (424.9 to 516.9) %,"Amax (maximum % activation achieved) (100% = normal enzyme turnover, 95% CI in parentheses, listed as His-Tyr): 467 (424.9 to 516.9) %"
,N[C@@H](Cc1c[nH]cn1)C(=O)N[C@H](Cc1c[nH]cn1)C(=O)O [Compound 2],202.8 (192.2 to 213.4) %,
,"N[C@@H](Cc1ccc(O)cc1)C(=O)N[C@H](Cc1c[nH]cn1)C(=O)O [Compound 4a, H-Try-His-OH] (H-Tyr-[dH]-OH)",Inactive,Nln activation (in words): complete amelioration of Nln activation; A50 (concentration required to activate Nln by 50%) (95% CI in parentheses): Inactive

Amax (maximum % activation achieved),Structure (SMILES),Amax (maximum % activation achieved) [1],also measured
,CC(C)(C)OC(=O)N[C@@H](Cc1c[nH]cn1)C(=O)N[C@H](Cc1ccccc1)C(=O)O [Compound 4b] (Boc-His-[dF]-OH),,Nln activation (in words): inactive
,"N[C@@H](Cc1c[nH]cn1)C(=O)NCCc1ccccc1 [Compound 4c, (S)-2-amino-3-(1H-imidazol-4-yl)-N-phenethylpropanamide]",337.2 (302-378.6) %,
,"N[C@H](Cc1c[nH]cn1)C(=O)NCCc1ccccc1 [Compound 4d, (R)-2-amino-3-(1H-imidazol-4-yl)-N-phenethylpropanamide]",294.6 (278.0 to 313) %,
,"COc1ccc(CCNC(=O)[C@@H](N)Cc2c[nH]cn2)cc1 [Compound 4e, (S)-2-amino-3-(1H-imidazol-4-yl)-N-(4-methoxyphenethyl)propanamide]",339.4 (314.2 to 369.3) %,
,"COc1ccc(CCNC(=O)[C@H](N)Cc2c[nH]cn2)cc1 [Compound 4f, (R)-2-amino-3-(1H-imidazol-4-yl)-N-(4-methoxyphenethyl)propanamide]",378.3 (350.5 to 411.9) %,
330.1 (313.9 to 347.7) %,"N[C@H](Cc1c[nH]cn1)C(=O)NCCc1ccc(C(F)(F)F)cc1 [Compound 4l, (R)-2-amino-3-(1H-imidazol-4-yl)-N-(4-(trifluoromethyl)phenethyl)propanamide]",,
,"N[C@@H](Cc1c[nH]cn1)C(=O)NCCc1ccc(F)cc1 [Compound 4m, (S)-2-amino-N-(4-fluorophenethyl)-3-(1H-imidazol-4-yl)propanamide]",323.1 (311.4 to 335.6) %,pEC50 (95% CI in parentheses): 4.55
267.5 (250.1 to 287.1) %,"N[C@H](Cc1c[nH]cn1)C(=O)NCCc1ccc([N+](=O)[O-])cc1 [Compound 4p, (R)-2-amino-3-(1H-imidazol-4-yl)-N-(4-nitrophenethyl)propanamide]",,
385.8 (363.8 to 410.5) %,COc1ccccc1CNC(=O)[C@@H](N)Cc1c[nH]cn1 [Compound 5d],,
327.5 (309.7 to 348.2) %,COc1cccc(CNC(=O)[C@@H](N)Cc2c[nH]cn2)c1 [Compound 5f],,
319.1 (296.3 to 344.3) %,"N[C@H](Cc1c[nH]cn1)C(=O)NCc1ccc(C(F)(F)F)cc1 [Compound 5i, (R)-2-amino-3-(1H-imidazol-4-yl)-N-(4-(trifluoromethyl)benzyl)propanamide]",,
345.8 (317.5 to 378.3) %,"N[C@H](Cc1c[nH]cn1)C(=O)NCc1ccccc1C(F)(F)F [Compound 5k, (R)-2-amino-3-(1H-imidazol-4-yl)-N-(2-(trifluoromethyl)benzyl)propanamide]",,
282 (258.4 to 309.1) %,N[C@H](Cc1c[nH]cn1)C(=O)NCc1cccc(C(F)(F)F)c1 [Compound 5m],,
293 (276.5-310.7) %,"N[C@@H](Cc1c[nH]cn1)C(=O)NCc1ccc(F)cc1 [Compound 5n, (S)-2-amino-N-(4-fluorobenzyl)-3-(1H-imidazol-4-yl)propanamide]",,
320.5 (299.7 to 343.9) %,"N[C@H](Cc1c[nH]cn1)C(=O)NCc1ccc(F)cc1 [Compound 5o, (R)-2-amino-N-(4-fluorobenzyl)-3-(1H-imidazol-4-yl)propanamide]",,
310 (287.2 to 336.1) %,N[C@@H](Cc1c[nH]cn1)C(=O)NCc1ccc(OC(F)(F)F)cc1 [Compound 5p],,
337.1 (312 to 364.9) %,"N[C@H](Cc1c[nH]cn1)C(=O)NCc1ccc(OC(F)(F)F)cc1 [Compound 5q, (R)-2-amino-3-(1H-imidazol-4-yl)-N-(4-(trifluoromethoxy)benzyl)propanamide]",,
287.5 (277.4 to 298.4) %,N[C@@H](Cc1c[nH]cn1)C(=O)NCc1ccc(SC(F)(F)F)cc1 [Compound 5r],,
,"N[C@@H](Cc1c[nH]cn1)C(=O)Nc1ccccc1 [Compound 6a, (S)-2-amino-3-(1H-imidazol-4-yl)-N-phenylpropanamide]",467% and 466.6%,pEC50 (95% CI in parentheses): 3.60
